US20260199367A1, “PLK1 DEGRADATION INDUCING COMPOUNDS WITH INCREASED RIGIDITY” (UPPTHERA, INC., priority 2022, published 2026)

Tests used:
Assay type in all cases: cell-based
[1] = target: T1, PLK1 (Homo sapiens, UniProt P53350); assay: Luciferase assay for PLK1 in HeLa LgBit (PLK1-HiBit KI) cell line; conditions: released after thymidine block, compound 300 nM, luminescence after 9 hours
T1 construct: endogenous in cells; host or cells: HeLa LgBit (PLK1-HiBit KI): HeLa cells stably expressing LgBit, with CRISPR/Cas9 knock-in of HiBit at the endogenous PLK1 locus
Method: A HeLa cell line in which the LgBit vector was transfected and expressed stably was prepared. Then, after constructing gRNA and donor to express the HiBit amino acid sequence behind the C-terminal of the PLK1 gene, which was inherent in the cell, it was inserted into the cell together with a vector capable of expressing CRISPR/Cas9. Only the cells in which the insertion was completed and knock-in had progressed were selected, sub-cultured and used.
The compounds of Examples were completely dissolved in DMSO (Sigma-Aldrich Cat. No. D2438, Lot. No. RNBL5438) and used in the experiment.
In the case of HeLa LgBit (Plk1-HiBit KI), the compounds were treated after being released after thymidine block, and the process was as follows. Thymidine (Sigma-Aldrich Cat. No. T9250-5G) was completely dissolved in ddH2O and used in the experiment. For thymidine block, the products were treated with 2 mM of thymidine and then incubated for 24 hours. For release and chemical treatment, the medium was suctioned and washed with 1×PBS. TrypLE™ was added and incubated in 37° C. CO2 incubator (Thermo Fisher Science, Cat. No. 4111) for 5 mins. Cells neutralized by adding complete media were counted through a counter. For each well of a 96-well culture plate (SPL), 3.3×10^4 cells and a total medium volume of 150 μl were seeded and incubated in a CO2 incubator.
Each cell line was incubated in a CO2 incubator for 18 hours, and Endurazine (Promega, Cat. No. N257B) was added to each well to make up 4% of the total volume. After adding compounds of Examples in a 96-well white plate (SPL) to a concentration of 300 nM, the wavelength of the plate reader (BMG Labtech, CLARIOstar Plus) was set to 470-480 nM, and then the luminescence was tracked in real time.

[2] = test system: NCI-H69 (H69) cell line; assay: Cell viability assay for NCI-H69 cell line; conditions: Homo sapiens, NCI-H69, 120 h, 5 days, EZ-Cytox, 0.46-3000 nM
Source text: (§1) The NCI-H69 (hereafter H69) and NCI-H526 (hereafter H526) cell lines were purchased from Korea Cell Line Bank (KCLB, Seoul, Korea). For cell culture, RPMI 1640 (Gibco, Cat. No. 22400-089; Lot. No. 2537146), FBS (Gibco, Cat. No. 16000-044; Lot. No. 2511328P), Penicillin/Streptomycin (PS) (Gibco, Cat. No. 15140-122; Lot. No. 2441887), 75T cell culture flask (SPL, Cat. No. 71075), 175T cell culture flask (SPL, Cat. No. 71175), 96-well cell culture plate (SPL, Cat. No. 30096), PBS pH 7.4 (Gibco, Cat. No. 10010-023; Lot. No. 2509235), TrypLE™ Express (Gibco, Cat. No. 12605-010; Lot. No. 2323417), Cell Counter (Hematocytometer)(As one, Cat. No. 4-458-01), and 0.4% Trypan Blue Solution (DYNEBIO, Cat. No. CBT3710; Lot. No. 20221111) were used.
(§2) The compounds of Examples were completely dissolved in DMSO (Sigma-Aldrich Cat. No. D2438, Lot. No. RNBL7287) and used in the experiment. 3×10^4 cells were seeded for each well of a 96-well plate (SPL), and the cells were cultured in total volume of 150 μl. Each compound was diluted 3-folds from the highest concentration of 3000 nM to the lowest concentration of 0.46 nM. After treating the compound to each well to make the total volume of 200 μl, it was cultured in a CO2 incubator (Thermo Fisher Science, Cat. No. 4111) for 5 days. Then, after treating EZ-Cytox (DOGEN, Cat.NO. EZ-3000, Lot. No. DLS2308) 20 μl in each well, it was cultured in CO2 incubator for 4 hours. The absorbance of the completely cultured sample was measured by setting the wavelength of a plate reader (BMG Labtech, CLARIOstar Plus) to […], and was measured after shaking for 3 minutes in a plate reader before measurement.
(§3) (A: IC50 is less than 20 nM, B: IC50 is 50 nM or less, C: IC50 is 100 nM or less)

[3] = test system: NCI-H526 (H526) cell line; assay: Cell viability assay for NCI-H526 cell line; conditions: Homo sapiens, NCI-H526, 120 h, 5 days, EZ-Cytox, 0.46-3000 nM
Source text: as §1, §2, §3

T1 sequence (P53350 whole entry): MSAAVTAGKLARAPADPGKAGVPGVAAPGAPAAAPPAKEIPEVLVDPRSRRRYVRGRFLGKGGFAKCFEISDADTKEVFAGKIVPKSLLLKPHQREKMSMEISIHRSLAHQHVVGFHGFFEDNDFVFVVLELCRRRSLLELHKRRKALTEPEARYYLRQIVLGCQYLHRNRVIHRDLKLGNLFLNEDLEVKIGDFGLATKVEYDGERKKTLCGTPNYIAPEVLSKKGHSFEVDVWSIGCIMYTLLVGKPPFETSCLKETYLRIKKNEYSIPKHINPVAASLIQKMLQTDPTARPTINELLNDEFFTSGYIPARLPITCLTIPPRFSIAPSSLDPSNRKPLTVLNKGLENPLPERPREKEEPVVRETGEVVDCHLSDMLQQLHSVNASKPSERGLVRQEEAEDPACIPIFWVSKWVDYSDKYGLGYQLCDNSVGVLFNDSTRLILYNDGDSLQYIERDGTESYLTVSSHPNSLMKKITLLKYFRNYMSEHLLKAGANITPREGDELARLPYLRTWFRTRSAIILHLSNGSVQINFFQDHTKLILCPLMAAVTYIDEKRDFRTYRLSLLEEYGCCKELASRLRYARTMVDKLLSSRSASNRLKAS

Q: For `COc1cc(C(=O)NN2CCC(C(N)CN3CCN(c4ccc(C5CCC(=O)NC5=O)cc4F)CC3)CC2)ccc1Nc1ncc2c(n1)N(C(C)C)CC(F)(F)C(=O)N2C` (stereo not drawn) [Compound 31, N-(4-(1-amino-2-(4-(4-(2,6-dioxopiperidin-3-yl)-2-fluorophenyl)piperazin-1-yl)ethyl)piperidin-1-yl)-4-((7,7-difluoro-9-isopropyl-5-methyl-6-oxo-6,7,8,9-tetrahydro-5H-pyrimido[4,5-b][1,4]diazepin-2-yl)amino)-3-methoxybenzamide], which “Value (luminescence value, PLK1-HiBit)” value [1] is on record?
A: 0.241

Q: What about the IC50 [2] of the same compound?
A: ≤ 50 nM

Q: And the IC50 [3]?
A: ≤ 50 nM

Q: What does the source list for `CC[C@@H]1C(=O)N(C)c2cnc(Nc3ccc(C(=O)NC4CCC(N5CCN(CCc6ccc(C7CCC(=O)NC7=O)cc6)CC5)CC4)cc3OC)nc2N1C1CCCC1` (stereo partly drawn) [Compound 20, 4-(((R)-8-cyclopentyl-7-ethyl-5-methyl-6-oxo-5,6,7,8-tetrahydropteridin-2-yl)amino)-N-((1r,4R)-4-(4-(4-(2,6-dioxopiperidin-3-yl)phenethyl)piperazin-1-yl)cyclohexyl)-3-methoxybenzamide]?
A: Value (luminescence value, PLK1-HiBit) [1]: 0.154; IC50 [2]: < 20 nM; IC50 [3]: < 20 nM

Q: `CC[C@@H]1C(=O)N(C)c2cnc(Nc3ccc(C(=O)NC4CCN(C(=O)C(N)CN5CCN(c6ccc(C7CCC(=O)NC7=O)cc6)CC5)CC4)cc3OC)nc2N1C1CCCC1` (stereo partly drawn) [Compound 11, N-(1-(2-amino-3-(4-(4-(2,6-dioxopiperidin-3-yl)phenyl)piperazin-1-yl)propanoyl)piperidin-4-yl)-4-(((R)-8-cyclopentyl-7-ethyl-5-methyl-6-oxo-5,6,7,8-tetrahydropteridin-2-yl)amino)-3-methoxybenzamide] was tested. Which “Value (luminescence value, PLK1-HiBit)” value [1] did it give?
A: 0.234

Q: What about the IC50 [2] of the same compound?
A: ≤ 50 nM

Q: And the IC50 [3]?
A: < 20 nM

Q: How did the “Value (luminescence value, PLK1-HiBit)” value [1] turn out when `COc1cc(C(=O)NC2CCN(C(=O)CCN3CCN(c4ccc(NC5CCC(=O)NC5=O)cc4)CC3)CC2)ccc1Nc1ncc2c(n1)N(C1CCCC1)CC1(CC1)C(=O)N2C` (stereo not drawn) [Compound 29, 4-((9′-cyclopentyl-5′-methyl-6′-oxo-5′,6′,8′,9′-tetrahydrospiro[cyclopropane-1,7′-pyrimido[4,5-b][1,4]diazepin]-2′-yl)amino)-N-(1-(3-(4-(4-((2,6-dioxopiperidin-3-yl)amino)phenyl)piperazin-1-yl)propanoyl)piperidin-4-yl)-3-methoxybenzamide] was run?
A: 0.267

Q: What about the IC50 [2] of the same compound?
A: ≤ 100 nM

Q: And the IC50 [3]?
A: ≤ 50 nM

Q: `CC[C@@H]1C(=O)N(C)c2cnc(Nc3ccc(C(=O)N[C@H]4CC[C@H](NCC5CCN(c6ccc(C7CCC(=O)NC7=O)nc6)CC5)CC4)cc3OC)nc2N1C1CCCC1` (stereo partly drawn) [Compound 25, 4-(((R)-8-cyclopentyl-7-ethyl-5-methyl-6-oxo-5,6,7,8-tetrahydropteridin-2-yl)amino)-N-((1r,4R)-4-(((1-(6-(2,6-dioxopiperidin-3-yl)pyridin-3-yl)piperidin-4-yl)methyl)amino)cyclohexyl)-3-methoxybenzamide] was tested. Which “Value (luminescence value, PLK1-HiBit)” value [1] did it give?
A: 0.144

Q: And the IC50 [2]?
A: < 20 nM

Q: And the IC50 [3]?
A: < 20 nM

Q: `CC[C@@H]1C(=O)N(C)c2cnc(Nc3ccc(C(=O)NN4CCC(C5CCN(CCc6ccc(C7CCC(=O)NC7=O)cc6)CC5)CC4)cc3OC)nc2N1C1CCCC1` (stereo partly drawn) [Compound 23, 4-(((R)-8-cyclopentyl-7-ethyl-5-methyl-6-oxo-5,6,7,8-tetrahydropteridin-2-yl)amino)-N-(1′-(4-(2,6-dioxopiperidin-3-yl)phenethyl)-[4,4′-bipiperidin]-1-yl)-3-methoxy benzamide] was tested. Which “Value (luminescence value, PLK1-HiBit)” value [1] did it give?
A: 0.186

Q: And the IC50 [2]?
A: < 20 nM

Q: What about the IC50 [3] of the same compound?
A: < 20 nM

Q: With `CC[C@@H]1C(=O)N(C)c2cnc(Nc3ccc(C(=O)NCC4CCN(CC5CCN(c6ccc(NC7CCC(=O)NC7=O)cc6)CC5)CC4)cc3OC)nc2N1C1CCCC1` (stereo partly drawn) [Compound 13, 4-(((R)-8-cyclopentyl-7-ethyl-5-methyl-6-oxo-5,6,7,8-tetrahydropteridin-2-yl)amino)-N-((1-((1-(4-((2,6-dioxopiperidin-3-yl)amino)phenyl)piperidin-4-yl)methyl)piperidin-4-yl)methyl)-3-methoxybenzamide] as the compound, how does the “Value (luminescence value, PLK1-HiBit)” value [1] read?
A: 0.165

Q: And the IC50 [2]?
A: ≤ 100 nM

Q: And the IC50 [3]?
A: < 20 nM

Q: With `CC[C@@H]1C(=O)N(C)c2cnc(Nc3ccc(C(=O)NC4CCC(N5CCC(NCc6ccc(C7CCC(=O)NC7=O)cc6)CC5)CC4)cc3OC)nc2N1C1CCCC1` (stereo partly drawn) [Compound 8, 4-(((R)-8-cyclopentyl-7-ethyl-5-methyl-6-oxo-5,6,7,8-tetrahydropteridin-2-yl)amino)-N-((1r,4R)-4-(4-((4-(2,6-dioxopiperidin-3-yl)benzyl)amino)piperidin-1-yl)cyclohexyl)-3-methoxybenzamide] as the compound, how does the “Value (luminescence value, PLK1-HiBit)” value [1] read?
A: 0.279

Q: And the IC50 [2]?
A: < 20 nM

Q: And the IC50 [3]?
A: < 20 nM

Q: `CC[C@@H]1C(=O)N(C)c2cnc(Nc3ccc(C(=O)NC4CCN(C(=O)C(N)CN5CCN(c6cccc7c6C(=O)N(C6CCC(=O)NC6=O)C7=O)CC5)CC4)cc3OC)nc2N1C1CCCC1` (stereo partly drawn) [Compound 9, N-(1-(2-amino-3-(4-(2-(2,6-dioxopiperidin-3-yl)-1,3-dioxoisoindolin-4-yl)piperazin-1-yl)propanoyl)piperidin-4-yl)-4-(((R)-8-cyclopentyl-7-ethyl-5-methyl-6-oxo-5,6,7,8-tetrahydropteridin-2-yl)amino)-3-methoxybenzamide] was tested. Which “Value (luminescence value, PLK1-HiBit)” value [1] did it give?
A: 0.377

Q: What about the IC50 [2] of the same compound?
A: ≤ 100 nM

Q: What about the IC50 [3] of the same compound?
A: < 20 nM

Q: `CC[C@@H]1C(=O)N(C)c2cnc(Nc3ccc(-c4nnc(CNC5CCN(C(=O)C(N)CN6CCN(c7ccc(C8CCC(=O)NC8=O)cc7)CC6)CC5)o4)cc3OC)nc2N1C1CCCC1` (stereo partly drawn) [Compound 15, 3-(4-(4-(2-amino-3-(4-(((5-(4-(((R)-8-cyclopentyl-7-ethyl-5-methyl-6-oxo-5,6,7,8-tetrahydropteridin-2-yl)amino)-3-methoxyphenyl)-1,3,4-oxadiazol-2-yl)methyl)amino)piperidin-1-yl)-3-oxopropyl)piperazin-1-yl)phenyl)piperidine-2,6-dione] was tested. Which “Value (luminescence value, PLK1-HiBit)” value [1] did it give?
A: 0.345

Q: What about the IC50 [2] of the same compound?
A: ≤ 100 nM

Q: And the IC50 [3]?
A: ≤ 50 nM

Q: For `CC[C@@H]1C(=O)N(C)c2cnc(Nc3ccc(C(=O)NN4CCC(C(N)CN5CCN(c6ccc(C7CCC(=O)NC7=O)cc6F)CC5)CC4)cc3OC)nc2N1C1CCCC1` (stereo partly drawn) [Compound 19, N-(4-(1-amino-2-(4-(4-(2,6-dioxopiperidin-3-yl)-2-fluorophenyl)piperazin-1-yl)ethyl)piperidin-1-yl)-4-(((R)-8-cyclopentyl-7-ethyl-5-methyl-6-oxo-5,6,7,8-tetrahydropteridin-2-yl)amino)-3-methoxybenzamide], which “Value (luminescence value, PLK1-HiBit)” value [1] is on record?
A: 0.132

Q: And the IC50 [2]?
A: ≤ 50 nM

Q: And the IC50 [3]?
A: ≤ 50 nM

Q: Which results are given for `CC[C@@H]1C(=O)N(C)c2cnc(Nc3ccc(C(=O)NC4CCC(N5CCN(CCc6ccc(NC7CCC(=O)NC7=O)cc6)CC5)CC4)cc3OC)nc2N1C1CCCC1` (stereo partly drawn) [Compound 4, 4-(((R)-8-cyclopentyl-7-ethyl-5-methyl-6-oxo-5,6,7,8-tetrahydropteridin-2-yl)amino)-N-((1r,4R)-4-(4-(4-((2,6-dioxopiperidin-3-yl)amino)phenethyl)piperazin-1-yl)cyclohexyl)-3-methoxybenzamide]?
A: Value (luminescence value, PLK1-HiBit) [1]: 0.157; IC50 [2]: < 20 nM; IC50 [3]: < 20 nM
